According to PMC10101933 (European journal of medicinal chemistry, 2023):

What was measured:
[1] = tested on: Nrf2 target genes (GSTM3, HMOX1 and NQO1); experiment: RT-qPCR of Nrf2-ARE regulated genes in NCM460D cells; assay type: cell-based; details: 100 μM; for induction of the Nrf2 target genes (HMOX1, GSTM3, NQO1), in words: vs GAPDH and HPRT housekeeping genes
[2] = biological target: T1, Keap1 Kelch domain protein (Homo sapiens, UniProt Q14145); experiment: Time-resolved fluorescence resonance energy transfer; assay type: binding
[3] = biological target: T1, Keap1 Kelch domain protein; experiment: Fluorescence polarization; assay type: binding

T1 sequence (Q14145 321-609 limits assumed): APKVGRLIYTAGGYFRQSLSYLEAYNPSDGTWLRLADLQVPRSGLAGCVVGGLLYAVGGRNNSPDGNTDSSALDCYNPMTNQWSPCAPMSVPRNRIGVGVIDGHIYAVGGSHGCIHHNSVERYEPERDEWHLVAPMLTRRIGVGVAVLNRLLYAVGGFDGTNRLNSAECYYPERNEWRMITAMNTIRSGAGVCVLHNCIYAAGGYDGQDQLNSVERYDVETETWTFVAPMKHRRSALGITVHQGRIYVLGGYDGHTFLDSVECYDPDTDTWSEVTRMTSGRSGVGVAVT

COc1ccc(-c2cc(N(CC(=O)O)S(=O)(=O)c3ccc(OC)cc3)c3ccccc3c2N(CC(=O)O)S(=O)(=O)c2ccc(OC)cc2)cc1 [Compound 12b, 2,2’-((2-(4-Methoxyphenyl)naphthalene-1,4-diyl)bis(((4-methoxyphenyl)sulfonyl)azanediyl))diacetic acid]
induction of the Nrf2 target genes (HMOX1, GSTM3, NQO1), in words [1]: significant induction

COc1ccc(S(=O)(=O)N(CC(=O)O)c2cc(-c3ccc(C#N)cc3)c(N(CC(=O)O)S(=O)(=O)c3ccc(OC)cc3)c3ccccc23)cc1 [Compound 12c, 2,2’-((2-(4-Cyanophenyl)naphthalene-1,4-diyl)bis(((4-methoxyphenyl)sulfonyl)azanediyl))diacetic acid]
induction of the Nrf2 target genes (HMOX1, GSTM3, NQO1), in words [1]: no induction

COc1ccc(S(=O)(=O)N(CC(=O)O)c2cc(-c3ccc(N4C(=O)c5ccccc5C4=O)cc3)c(N(CC(=O)O)S(=O)(=O)c3ccc(OC)cc3)c3ccccc23)cc1 [Compound 12d, 2,2’-((2-(4-(1,3-Dioxoisoindolin-2-yl)phenyl)naphthalene-1,4-diyl)bis(((4-methoxyphenyl)sulfonyl)azanediyl))diacetic acid]
induction of the Nrf2 target genes (HMOX1, GSTM3, NQO1), in words [1]: significant induction

COc1ccc(S(=O)(=O)N(CC(N)=O)c2cc(CCC(=O)O)c(N(CC(N)=O)S(=O)(=O)c3ccc(OC)cc3)c3ccccc23)cc1 [Compound 17a, 3-(1,4-Bis((N-(2-amino-2-oxoethyl)-4-methoxyphenyl)sulfonamido)naphthalen-2-yl)propanoic acid]
fold decrease in potency relative to 2a ([2]; as indicated by TR-FRET IC50 and Ki): 3 fold

COc1ccc(S(=O)(=O)N(CC(=O)O)c2cc(CCC(=O)N3CCOCC3)c(N(CC(=O)O)S(=O)(=O)c3ccc(OC)cc3)c3ccccc23)cc1 [Compound 17c, 2,2’-((2-(3-Morpholino-3-oxopropyl)naphthalene-1,4-diyl)bis(((4-methoxyphenyl)sulfonyl)azanediyl))diacetic acid]
fold increase in binding affinity vs 17b ([2]; as indicated by the TR-FRET Ki): 2 fold
induction of the Nrf2 target genes (HMOX1, GSTM3, NQO1), in words [1]: significant induction

COc1ccc(S(=O)(=O)N(CC(=O)O)c2cc(CCC(N)=O)c(N(CC(=O)O)S(=O)(=O)c3ccc(OC)cc3)c3ccccc23)cc1 [Compound 21, 2,2’-((2-(3-Amino-3-oxopropyl)naphthalene-1,4-diyl)bis(((4-methoxyphenyl)sulfonyl)azanediyl))diacetic acid]
fold drop in inhibitory activity vs 2a ([2]; as indicated by the Ki value from the TR-FRET assay): ~2 fold

COc1ccc(S(=O)(=O)N(CC(=O)O)c2cc(CCCN3C(=O)c4ccccc4C3=O)c(N(CC(=O)O)S(=O)(=O)c3ccc(OC)cc3)c3ccccc23)cc1 [Compound 24a, 2,2’-((2-(3-(1,3-Dioxoisoindolin-2-yl)propyl)naphthalene-1,4-diyl)bis(((4-methoxyphenyl)sulfonyl)azanediyl))diacetic acid]
Ki value (in words) ([2]; from TR-FRET assay): subnanomolar range
mRNA levels of GSTM3, HMOX1 and NQO1, fold vs vehicle (DMSO) control [1]: 2.4–11.7 fold
induction of the Nrf2 target genes (HMOX1, GSTM3, NQO1), in words [1]: significant induction

COc1ccc(S(=O)(=O)N(CC(=O)O)c2cc(CCCN(C)Cc3ccccc3)c(N(CC(=O)O)S(=O)(=O)c3ccc(OC)cc3)c3ccccc23)cc1 [Compound 24b, 2,2’-((2-(3-(Benzyl(methyl)amino)propyl)naphthalene-1,4-diyl)bis(((4-methoxyphenyl)sulfonyl)azanediyl))diacetic acid]
IC50 [3]: 276 ± 17 nM
fold reduction in potency vs 24a ([2]; TR-FRET assay): more than 20 fold
